From ChEMBL document CHEMBL1145869, “Enantiomerically pure tetrahydroquinoline derivatives as in vivo potent antagonists of the glycine binding site associated to the NMDA receptor” (Bioorg Med Chem Lett, 2003) come the findings set out here.

In one data set the target is Glutamate NMDA receptor. The data set is described as follows: In vitro ability to inhibit the binding of [3H]glycine to glycine binding site of N-methyl-D-aspartate glutamate receptor in rat synaptic membranes. It counts as cell membranes, Membrane.
The test system of data set [1] is Rattus norvegicus. Description: In vivo neuroprotective activity in the MCAo model of rats 6 hr after occlusion(post-ischemia) by iv administration at a dose of 1 mg/kg. It counts as functional.
In data set [2] the test system is Rattus norvegicus. The data set is described as follows: In vivo neuroprotective activity as reduction of size of gross brain damage in the MCAo model of rats 6 hr after occlusion(post-ischemia) by iv administration at a dose of 0.3 mg/kg. It counts as functional.
Data set [3] concerns Rattus norvegicus. The data set is described as follows: In vivo neuroprotective activity as reduction of size of gross brain damage in the MCAo model of rats 6 hr after occlusion(post-ischemia) by iv administration at a dose of 1 mg/kg. The format is functional.
Another data set has as its system Mus musculus. Description: In vivo neuroprotective activity in the NMDA-induced convulsions in mice after iv administration. It counts as functional.
For data set [4], the species on record is Rattus norvegicus. The data set is described as follows: Area under curve in rat plasma. The settings on record: in vivo. It counts as ADME, organism-based.
Data set [5] concerns Rattus norvegicus. The data set is described as follows: In vivo neuroprotective activity in the MCAo model of rats 6 hr after occlusion(post-ischemia) by iv administration at a dose of 0.3 mg/kg. It counts as functional.
Data set [6] has as its system Rattus norvegicus. The data set is described as follows: In vivo neuroprotective activity in the MCAo model of rats 5 min prior to occlusion(pre-ischemia) by iv administration at a dose of 1 mg/kg. The format is functional.
The test system of data set [7] is Rattus norvegicus. Description: In vivo neuroprotective activity in the MCAo model of rats 5 min prior to occlusion(pre-ischemia) by iv administration at a dose of 0.01 mg/kg. It counts as functional.
Data set [8] relates to Rattus norvegicus. Description: In vivo neuroprotective activity as reduction of size of gross brain damage in the MCAo model of rats 5 min prior to occlusion(pre-ischemia) by iv administration at a dose of 1 mg/kg. The format is functional.
Data set [9] has as its system Rattus norvegicus. The data set is described as follows: In vivo neuroprotective activity as reduction of size of gross brain damage in the MCAo model of rats 5 min prior to occlusion(pre-ischemia) by iv administration at a dose of 0.1 mg/kg. It counts as functional.
In data set [10] the test system is Rattus norvegicus. The data set is described as follows: In vivo neuroprotective activity in the MCAo model of rats 5 min prior to occlusion(pre-ischemia) by iv administration at a dose of 0.1 mg/kg. It counts as functional.
Data set [11] concerns Rattus norvegicus. Description: In vivo neuroprotective activity as reduction of size of gross brain damage in the MCAo model of rats 5 min prior to occlusion(pre-ischemia) by iv administration at a dose of 0.01 mg/kg. It counts as functional.
In data set [12] the test system is Rattus norvegicus. Description: In vivo neuroprotective activity as reduction of size of gross brain damage in the MCAo model of rats 5 min prior to occlusion(pre-ischemia) by iv administration at a dose of 10 mg/kg. The format is functional.
The test system of data set [13] is Rattus norvegicus. The data set is described as follows: In vivo neuroprotective activity in the MCAo model of rats 5 min prior to occlusion(pre-ischemia) by iv administration at a dose of 10 mg/kg. The format is functional.

Molecules are shown by their SMILES.

Usually ED50 stands for the dose that gives a 50% effect, or the effect in half of the subjects. Read a low ED50 as greater potency. By AUC is commonly meant the area under the concentration-time curve, a measure of exposure. Higher therefore signals high exposure.

`CC(=O)Nc1ccc(NC(=O)/C=C2\CC(C(=O)O)Nc3cc(Cl)cc(Cl)c32)cc1` (single isomer, unassigned; (+)): the “Log Ki” value on Glutamate NMDA receptor is -8.79. For the same molecule, the Infarct volume was 44.4 mm**3 in the data set on Rattus norvegicus [1] and 55.6 mm**3 in the data set with Rattus norvegicus [5]. The Reduction with Rattus norvegicus [2] is 26.3%; with Rattus norvegicus [3] it was 41.2%. This molecule also returned an ED50 in the data set on Mus musculus of 0.31 mg/kg. The AUC in the data set filed under Rattus norvegicus [4] worked out at 3440 ng·h/mL.
For the molecule `Nc1ccc(NC(=O)/C=C2\CC(C(=O)O)Nc3cc(Cl)cc(Cl)c32)cc1` (stereo not drawn), the “Log Ki” value at Glutamate NMDA receptor is on record as -7.76.
On the same count and under the same terms, in the case of `NC(=O)NCc1ccc(NC(=O)/C=C2\CC(C(=O)O)Nc3cc(Cl)cc(Cl)c32)cc1` (stereo not drawn) it was -8.38; in that of `N#CCc1ccc(NC(=O)/C=C2\CC(C(=O)O)Nc3cc(Cl)cc(Cl)c32)cc1` (stereo not drawn), -8.15; in that of `O=C(/C=C1\CC(C(=O)O)Nc2cc(Cl)cc(Cl)c21)Nc1ccccc1` (stereo not drawn), -8.18.
On the same count and under the same terms, as for `NC(=O)Cc1ccc(NC(=O)/C=C2\CC(C(=O)O)Nc3cc(Cl)cc(Cl)c32)cc1` (stereo not drawn), the figure is -8.18.
On the same count and under the same terms, as for `CC(C)C(=O)NCc1ccc(NC(=O)/C=C2\CC(C(=O)O)Nc3cc(Cl)cc(Cl)c32)cc1` (stereo not drawn), the figure is -7.78; as for `CC(=O)NCc1ccc(NC(=O)/C=C2\CC(C(=O)O)Nc3cc(Cl)cc(Cl)c32)cc1` (stereo not drawn), -8.32; as for `COCC(=O)Nc1ccc(NC(=O)/C=C2\CC(C(=O)O)Nc3cc(Cl)cc(Cl)c32)cc1` (stereo not drawn), -8.18.
In the case of `O=C(O)Cc1ccc(NC(=O)/C=C2\CC(C(=O)O)Nc3cc(Cl)cc(Cl)c32)cc1` (stereo not drawn), at Glutamate NMDA receptor, the “Log Ki” value is reported as -7.72.
Same read-out and setting: in the case of `NC(=O)/C=C/c1ccc(NC(=O)/C=C2\CC(C(=O)O)Nc3cc(Cl)cc(Cl)c32)cc1` (stereo not drawn) it was -8.15.
As for `N#C/C=C/c1ccc(NC(=O)/C=C2\CC(C(=O)O)Nc3cc(Cl)cc(Cl)c32)cc1` (stereo not drawn), the “Log Ki” value at Glutamate NMDA receptor is -7.73.
Same read-out and setting: in the case of `NS(=O)(=O)Nc1ccc(NC(=O)/C=C2\CC(C(=O)O)Nc3cc(Cl)cc(Cl)c32)cc1` (stereo not drawn) it was -8.17; in that of `O=C(/C=C/c1c(C(=O)O)[nH]c2cc(Cl)cc(Cl)c12)Nc1ccccc1` [GAVESTINEL], -8.52.
`CC(=O)Nc1ccc(NC(=O)/C=C2\CC(C(=O)O)Nc3cc(Cl)cc(Cl)c32)cc1` (stereo in doubt; 3c): the “Log Ki” value on Glutamate NMDA receptor is listed as -8.52. For the same molecule, the Infarct volume in the data set on Rattus norvegicus [6] stood at 41.8 mm3; with Rattus norvegicus [1], 29.9 mm**3; with Rattus norvegicus [7] it was 64.3 mm3; with Rattus norvegicus [10] it was 47.8 mm3; in the data set with Rattus norvegicus [5], 36.6 mm**3; in the data set with Rattus norvegicus [13], 39.7 mm3. Moreover, the Reduction amounted to 50.3% in the data set with Rattus norvegicus [2]; 59.4% in the data set on Rattus norvegicus [3]; 43.3% in the data set on Rattus norvegicus [8]; 35.1% in the data set on Rattus norvegicus [9]; 12.7% with Rattus norvegicus [11]; 46.1% in the data set with Rattus norvegicus [12]. The molecule further gave an ED50 with Mus musculus of 0.2 mg/kg. This molecule also yielded an AUC in the data set listed under Rattus norvegicus [4] of 11500 ng·h/mL.
For `CC(=O)Nc1ccc(NC(=O)/C=C2\CC(C(=O)O)Nc3cc(Cl)cc(Cl)c32)cc1` (single isomer, unassigned; (-)), on Glutamate NMDA receptor, the “Log Ki” value is -7.3. Further, the Infarct volume came out at 42.9 mm**3 in the data set on Rattus norvegicus [1] and 58.7 mm**3 in the data set on Rattus norvegicus [5]. The Reduction with Rattus norvegicus [2] is 22.2%; in the data set with Rattus norvegicus [3], 43.2%. Also, the ED50 in the data set on Mus musculus turned out to be 1.52 mg/kg. This molecule showed an AUC in the data set filed under Rattus norvegicus [4] of 19800 ng·h/mL.
For the molecule `CS(=O)(=O)Nc1ccc(NC(=O)/C=C2\CC(C(=O)O)Nc3cc(Cl)cc(Cl)c32)cc1` (stereo not drawn), the “Log Ki” value at Glutamate NMDA receptor is -8.18.
